# Assay results from ChEMBL document CHEMBL1135076, “Leishmanicidal activity of some aliphatic diamines and amino-alcohols” (Bioorg Med Chem Lett, 2002).
# How the values were obtained:
# Format in all cases: functional, organism-based
# Leishmania amazonensis [1] = assay: In vitro for leishmanicidal activity against Leishmania amazonensis (PH8) at the concentration of 10 ug/mL.
# Leishmania donovani [2] = assay: In vitro for leishmanicidal activity against Leishmania donovani (PP75) at the concentration of 25 ug/mL.
# Leishmania donovani [3] = assay: Tested in vitro for leishmanicidal activity against Leishmania donovani (PP75) at the concentration of 10 ug/mL
# Leishmania braziliensis [4] = assay: In vitro for leishmanicidal activity against Leishmania brasiliensis (2903) at the concentration of 50 ug/mL.
# Leishmania amazonensis [5] = assay: In vitro for leishmanicidal activity against Leishmania amazonensis (PH8) at 25 ug/mL; No lysis of parasites.
# Leishmania amazonensis [6] = assay: In vitro for leishmanicidal activity against Leishmania amazonensis (PH8) at the concentration of 100 ug/mL.
# Leishmania braziliensis [7] = assay: Tested in vitro for leishmanicidal activity against Leishmania brasiliensis (2903) at the concentration of 100 ug/mL; ++ indicates 80-90% lysis of parasites
# Leishmania donovani [8] = assay: In vitro for leishmanicidal activity against Leishmania donovani (PP75) at the concentration of 100 ug/mL.
# Leishmania amazonensis [9] = assay: In vitro for leishmanicidal activity against Leishmania amazonensis (PH8) at the concentration of 50 ug/mL.
# Leishmania braziliensis [10] = assay: In vitro for leishmanicidal activity against Leishmania brasiliensis (2903) at the concentration of 10 ug/mL.
# Leishmania donovani [11] = assay: In vitro for leishmanicidal activity against Leishmania donovani (PP75) at the concentration of 50 ug/mL.
# Leishmania braziliensis [12] = assay: In vitro for leishmanicidal activity against Leishmania brasiliensis (2903) at the concentration of 25 ug/mL.
# Leishmania braziliensis [13] = assay: In vitro for leishmanicidal activity against Leishmania brasiliensis (2903) at the concentration of 100 ug/mL.
# Leishmania amazonensis [14] = assay: Tested in vitro for leishmanicidal activity against Leishmania amazonensis (PH8) at the concentration of 25 ug/mL; + indicates less than 70% lysis of parasites
# Leishmania donovani [15] = assay: In vitro for leishmanicidal activity against Leishmania donovani (PP75) at the concentration of 10 ug/mL.
# Leishmania donovani [16] = assay: Tested in vitro for leishmanicidal activity against Leishmania donovani (PP75) at the concentration of 25 ug/mL;+ indicates Less than 70% lysis of parasites
# Leishmania braziliensis [17] = assay: Tested in vitro for leishmanicidal activity against Leishmania brasiliensis (2903) at the concentration of 50 ug/mL;++ indicates 80-90% lysis of parasites
# Leishmania donovani [18] = assay: Tested in vitro for leishmanicidal activity against Leishmania donovani (PP75) at the concentration of 50 ug/mL;++ indicates 80-90% lysis of parasites
# Leishmania braziliensis [19] = assay: Tested in vitro for leishmanicidal activity against Leishmania brasiliensis (2903) at the concentration of 10 ug/mL;+ indicates Less than 70% lysis of parasites
# Leishmania braziliensis [20] = assay: Tested in vitro for leishmanicidal activity against Leishmania brasiliensis (2903) at the concentration of 25 ug/mL;+ indicates Less than 70% lysis of parasites
# Leishmania braziliensis [21] = assay: Tested in vitro for leishmanicidal activity against Leishmania brasiliensis (2903) at the concentration of 100 ug/mL; + indicates Less than 70% lysis of parasites
# Leishmania donovani [22] = assay: Tested in vitro for leishmanicidal activity against Leishmania donovani (PP75) at the concentration of 100 ug/mL;+ indicates Less than 70% lysis of parasites
# Leishmania amazonensis [23] = assay: Tested in vitro for leishmanicidal activity against Leishmania amazonensis (PH8) at the concentration of 100 ug/mL; + indicates less than 70% lysis of parasites
Structure (SMILES),Activity (Leishmania amazonensis [1]),Activity (Leishmania donovani [2]),Activity (Leishmania donovani [3]),Activity (Leishmania braziliensis [4]),Activity (Leishmania amazonensis [5]),Activity (Leishmania amazonensis [6]),Activity (Leishmania braziliensis [7]),Activity (Leishmania donovani [8]),Activity (Leishmania amazonensis [9]),Activity (Leishmania braziliensis [10]),Activity (Leishmania donovani [11]),Activity (Leishmania braziliensis [12]),also measured
CCCCCCCCCCCCCCC(CO)NC(=O)OC(C)(C)C (stereo unspecified),80-90% lysis of parasites,80-90% lysis of parasites,80-90% lysis of parasites,80-90% lysis of parasites,80-90% lysis of parasites,80-90% lysis of parasites,80-90% lysis of parasites,80-90% lysis of parasites,80-90% lysis of parasites,80-90% lysis of parasites,80-90% lysis of parasites,80-90% lysis of parasites,–
CCCCCCCCCCCCCCC(CNCC(=O)OCC)NC(=O)OC(C)(C)C (stereo unspecified),80-90% lysis of parasites,–,–,–,–,+,–,+,+,–,–,–,Activity (Leishmania braziliensis [13]): +; Activity (Leishmania amazonensis [14]): 80-90% lysis of parasites; Activity (Leishmania donovani [15]): 80-90% lysis of parasites; Activity (Leishmania donovani [16]): 80-90% lysis of parasites; Activity (Leishmania braziliensis [17]): 80-90% lysis of parasites; Activity (Leishmania donovani [18]): 80-90% lysis of parasites; Activity (Leishmania braziliensis [19]): 80-90% lysis of parasites; Activity (Leishmania braziliensis [20]): 80-90% lysis of parasites
CCCCCCCCCCCCCCC(COC(=O)CCCCCC)NC(=O)CCCCCC (stereo unspecified),80-90% lysis of parasites,80-90% lysis of parasites,80-90% lysis of parasites,80-90% lysis of parasites,80-90% lysis of parasites,80-90% lysis of parasites,80-90% lysis of parasites,80-90% lysis of parasites,80-90% lysis of parasites,80-90% lysis of parasites,80-90% lysis of parasites,80-90% lysis of parasites,–
CCCCCCCCCCCCCCC(CO)NC(=O)CCCCCC (stereo unspecified),Less than 70% lysis of parasites,Less than 70% lysis of parasites,Less than 70% lysis of parasites,Less than 70% lysis of parasites,Less than 70% lysis of parasites,Less than 70% lysis of parasites,–,Less than 70% lysis of parasites,Less than 70% lysis of parasites,Less than 70% lysis of parasites,Less than 70% lysis of parasites,Less than 70% lysis of parasites,Activity (Leishmania braziliensis [21]): Less than 70% lysis of parasites
CCCCCCCCCCCCCCC(N)CN(CC)CC (stereo unspecified),Less than 70% lysis of parasites,–,–,–,–,+,–,+,+,–,+,–,Activity (Leishmania braziliensis [13]): +; Activity (Leishmania donovani [15]): Less than 70% lysis of parasites; Activity (Leishmania braziliensis [19]): Less than 70% lysis of parasites
CCCCCCCCCCCCCCC(NC(=O)OC(C)(C)C)C(=O)O (stereo unspecified),80-90% lysis of parasites,80-90% lysis of parasites,80-90% lysis of parasites,80-90% lysis of parasites,80-90% lysis of parasites,80-90% lysis of parasites,80-90% lysis of parasites,80-90% lysis of parasites,80-90% lysis of parasites,80-90% lysis of parasites,80-90% lysis of parasites,80-90% lysis of parasites,–
CCCCCCCCCCCCCCC(N)CN (stereo unspecified),80-90% lysis of parasites,80-90% lysis of parasites,80-90% lysis of parasites,80-90% lysis of parasites,80-90% lysis of parasites,80-90% lysis of parasites,80-90% lysis of parasites,80-90% lysis of parasites,80-90% lysis of parasites,80-90% lysis of parasites,80-90% lysis of parasites,80-90% lysis of parasites,–
CCCCCCCCCCCCCCC(=O)NC(CO)CCCCCCCCCCCCCC (stereo unspecified),Less than 70% lysis of parasites,Less than 70% lysis of parasites,Less than 70% lysis of parasites,Less than 70% lysis of parasites,Less than 70% lysis of parasites,–,–,–,Less than 70% lysis of parasites,Less than 70% lysis of parasites,Less than 70% lysis of parasites,Less than 70% lysis of parasites,Activity (Leishmania donovani [22]): Less than 70% lysis of parasites; Activity (Leishmania amazonensis [23]): Less than 70% lysis of parasites; Activity (Leishmania braziliensis [21]): Less than 70% lysis of parasites
CCCCCCCCCCCCCCC(COCc1ccccc1)NCC(=O)OCC (stereo unspecified),80-90% lysis of parasites,80-90% lysis of parasites,80-90% lysis of parasites,80-90% lysis of parasites,80-90% lysis of parasites,80-90% lysis of parasites,80-90% lysis of parasites,80-90% lysis of parasites,80-90% lysis of parasites,80-90% lysis of parasites,80-90% lysis of parasites,80-90% lysis of parasites,–
CCCCCCCCCCCCCCC(COCc1ccccc1)N(CC)CC (stereo unspecified),80-90% lysis of parasites,80-90% lysis of parasites,80-90% lysis of parasites,80-90% lysis of parasites,80-90% lysis of parasites,80-90% lysis of parasites,80-90% lysis of parasites,80-90% lysis of parasites,80-90% lysis of parasites,80-90% lysis of parasites,80-90% lysis of parasites,80-90% lysis of parasites,–
CCCCCCCCCCCCCCC(N)CO (stereo unspecified),80-90% lysis of parasites,80-90% lysis of parasites,80-90% lysis of parasites,80-90% lysis of parasites,80-90% lysis of parasites,80-90% lysis of parasites,80-90% lysis of parasites,80-90% lysis of parasites,80-90% lysis of parasites,80-90% lysis of parasites,80-90% lysis of parasites,80-90% lysis of parasites,–
C[C@@H]1[C@H](O)[C@@H](C)/C=C/C=C/C=C/C=C/C=C/C=C/C=C/[C@H](O[C@@H]2O[C@H](C)[C@@H](O)[C@H](N)[C@@H]2O)C[C@@H]2O[C@](O)(C[C@@H](O)C[C@@H](O)[C@H](O)CC[C@@H](O)C[C@@H](O)CC(=O)O[C@H]1C)C[C@H](O)[C@H]2C(=O)O,–,–,–,–,–,+,–,+,+,–,+,–,–
CCCCCCCCCCCCCCC(CN)NC(=O)OC(C)(C)C (stereo unspecified),80-90% lysis of parasites,80-90% lysis of parasites,80-90% lysis of parasites,80-90% lysis of parasites,80-90% lysis of parasites,80-90% lysis of parasites,80-90% lysis of parasites,80-90% lysis of parasites,80-90% lysis of parasites,80-90% lysis of parasites,80-90% lysis of parasites,80-90% lysis of parasites,–
CCCCCCCCCCCCCCC(COCc1ccccc1)NC(=O)CCCC(=O)O (stereo unspecified),80-90% lysis of parasites,80-90% lysis of parasites,80-90% lysis of parasites,80-90% lysis of parasites,80-90% lysis of parasites,80-90% lysis of parasites,80-90% lysis of parasites,80-90% lysis of parasites,80-90% lysis of parasites,80-90% lysis of parasites,80-90% lysis of parasites,80-90% lysis of parasites,–
